Patent US7223759B2, “Antibacterial 3,5-diaminopiperidine-substituted aromatic and heteroaromatic compounds” (Anadys Pharmaceuticals, Inc., priority 2003, dated 2007)
Read-outs that look alike come from different tables or passages of the source.

System: Escherichia coli (ATCC25922) or Staphylococcus aureus (ATCC25923)
Assay: Antibacterial MIC, microdilution method in Mueller-Hinton medium
Format: cell-based
Settings: for MIC: Escherichia coli, 18 h, read-out: Potency (MIC)
Procedure, shortened: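 Two-fold serial dilutions from 64 to 0.5 μg/ml, in duplicate, by broth microdilution in Mueller-Hinton medium (NCCLS M7-A5). MIC taken as the lowest concentration preventing visible growth after 18 h at 35° C.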

[1] = MIC in E. coli or S. aureus, two-fold serial dilutions 64 to 0.5 μg/ml in duplicate, 18 hours of incubation at 35° C.

Row | Molecule | MIC [µg/mL] | also measured
1 | COc1cccc(OC)c1CNc1nc(N2C[C@H](N)C[C@H](N)C2)nc(N2C[C@H](N)C[C@H](N)C2)n1 [N-(2,6-dimethoxy-benzyl)-4,6-Bis-((3R,5S)-3,5-diamino-piperidin-1-yl)-[1,3,5]triazine-2-amine] | > 64 | –
2 | Cc1ccnc(NS(=O)(=O)c2ccc(Nc3nc(N4C[C@H](N)C[C@H](N)C4)nc(N4C[C@H](N)C[C@H](N)C4)n3)cc2)n1 [N-[4-(4-methyl-pyrimidin-2-ylsulfamoyl)-phenyl]-4,6-Bis-((3R,5S)-3,5-diamino-piperidin-1-yl)-[1,3,5]triazine-2-amine] | > 64 | –
3 | N[C@@H]1C[C@H](N)CN(c2nc(NNc3cccc(C(F)(F)F)c3)nc(N3C[C@H](N)C[C@H](N)C3)n2)C1 [N-(4,6-Bis-((3R,5S)-3,5-diamino-piperidin-1-yl)-[1,3,5]triazin-2-yl)-N′-(3-Trifluoromethyl-phenyl)-hydrazine] | < 64 | –
4 | N[C@@H]1C[C@H](N)CN(c2nc(NNc3ccccc3)nc(N3C[C@H](N)C[C@H](N)C3)n2)C1 [N-(4,6-Bis-((3R,5S)-3,5-diamino-piperidin-1-yl)-[1,3,5]triazin-2-yl)-N′-Phenyl-hydrazine] | > 64 | –
5 | Cl.N[C@@H]1C[C@H](N)CN(c2nc(NCc3ccco3)nc(N3C[C@H](N)C[C@H](N)C3)n2)C1 [N-furan-2-ylmethyl-4,6-Bis-((3R,5S)-3,5-diamino-piperidin-1-yl)-[1,3,5]triazine-2-amine] | – | MIC [1]: > 64 µg/mL
6 | NC1CCN(c2nc(N3C[C@H](N)C[C@H](N)C3)nc(N3C[C@H](N)C[C@H](N)C3)n2)CC1 [1-(4,6-Bis-((3R,5S)-3,5-diamino-piperidin-1-yl)-[1,3,5]triazin-2-yl)-piperidine-3-carboxylic aciddiethylamide] | – | MIC [1]: > 64 µg/mL
7 | Cc1ccc(S(=O)(=O)N(Cc2ccccc2)c2ccc(Nc3nc(N4C[C@H](N)C[C@H](N)C4)nc(N4CC[C@H](O)[C@@H]4CN)n3)c(O)c2)cc1 | – | Potency (MIC) [1]: + (+ means MIC<64 μg/ml in E. coli or S. aureus)
8 | N[C@@H]1C[C@H](N)CN(c2nc(Nc3ccc(C(=O)Nc4cccc(CO)c4)c(O)c3)nc(N3C[C@H](N)C[C@H](N)C3)n2)C1 [N-[3-hydroxy-4-(3-hydroxymethyl-phenylcarbamoyl)-phenyl]-4,6-Bis-((3R,5S)-3,5-diamino-piperidin-1-yl)-[1,3,5]triazine-2-amine] | < 64 | –
9 | NC[C@@H]1C[C@H](CN)CN(c2nc(Nc3ccc4c(c3)-c3ccccc3C4=O)nc(N3C[C@H](N)C[C@H](N)C3)n2)C1 [3-[4-((3R,5S)-3,5-Bis-(aminomethyl)-piperidin-1-yl)-6-((3R,5S)-3,5-diamino-piperidin-1-yl)-[1,3,5]triazin-2-ylamino]-fluoren-9-one] | < 64 | –
10 | N[C@@H]1C[C@H](N)CN(c2nc(Nc3ccc(S(=O)(=O)Nc4ccc5cn[nH]c5c4)cc3)nc(N3C[C@@H](O)[C@@H](O)C3)n2)C1 [4-[4-((3S,5R)-3,5-Diamino-piperidin-1-yl)-6-((3R,4S)-3,4-dihydroxy-pyrrolidin-1-yl)-[1,3,5]triazin-2-ylamino]-N-(1H-indazol-6-yl)-benzenesulfonamide] | > 64 | –
11 | N[C@@H]1C[C@H](N)CN(c2nc(Nc3cccc(NC(=O)c4ccc(O)cc4O)c3)nc(N3C[C@H](N)C[C@H](N)C3)n2)C1 [N-[3-(2,4-dihydroxy-benzoylamino)-phenyl]-4,6-Bis-((3R,5S)-3,5-diamino-piperidin-1-yl)-[1,3,5]triazine-2-amine] | < 16 | –
12 | N[C@@H]1C[C@H](N)CN(c2nc(Nc3ccc(C(=O)Nc4ccc(F)cc4)c(O)c3)nc(N3C[C@H](N)C[C@H](N)C3)n2)C1 [N-[4-(4-fluoro-phenylcarbamoyl)-3-hydroxy-phenyl]-4,6-Bis-((3R,5S)-3,5-diamino-piperidin-1-yl)-[1,3,5]triazine-2-amine] | < 16 | –
13 | N[C@@H]1C[C@H](N)CN(c2nc(Nc3ccc(C(=O)Nc4ccc(Cl)cc4)c(O)c3)nc(N3C[C@H](N)C[C@H](N)C3)n2)C1 [N-[4-(4-chloro-phenylcarbamoyl)-3-hydroxy-phenyl]-4,6-Bis-((3R,5S)-3,5-diamino-piperidin-1-yl)-[1,3,5]triazine-2-amine] | < 64 | –
14 | N[C@@H]1C[C@H](N)CN(c2nc(Nc3ccc(Br)cc3)nc(N3C[C@H](N)C[C@H](N)C3)n2)C1 [N-(4-bromo-phenyl)-4,6-Bis-((3R,5S)-3,5-diamino-piperidin-1-yl)-[1,3,5]triazine-2-amine] | – | MIC [1]: > 64 µg/mL
15 | Cc1cc(=O)oc2cc(Nc3nc(N4C[C@H](N)C[C@H](N)C4)nc(N4C[C@H](N)C[C@H](N)C4)n3)ccc12 [N-(4-methyl-2-oxo-2H-chromen-7-yl)-4,6-Bis-((3R,5S)-3,5-diamino-piperidin-1-yl)-[1,3,5]triazine-2-amine] | < 16 | –
16 | N[C@@H]1C[C@H](N)CN(c2nc(Nc3ccc(C(=O)CC(=O)Nc4cccc(C(F)(F)F)c4)cc3)nc(N3C[C@H](N)C[C@H](N)C3)n2)C1 [N-{4-[2-(3-trifluoromethyl-phenylcarbamoyl)-acetyl]-phenyl}-4,6-Bis-((3R,5S)-3,5-diamino-piperidin-1-yl)-[1,3,5]triazine-2-amine] | < 16 | –

Row | Molecule | MIC [µg/mL] | also measured
17 | Cc1ccc(S(=O)(=O)N(Cc2ccccc2)c2ccc(Nc3nc(N4CCCCC4)nc(N4CCN(c5ccncc5)CC4)n3)cc2O)cc1.Cl [N-Benzyl-N-{4-[4-((3R,5SD)-3,5-diamino-piperidin-1-yl)-6-(4-pyridin-4-yl-piperazin-1-yl)-[1,3,5]triazin-2-ylamino]-2-hydroxy-phenyl}-4-methyl-benzenesulfonamide] | – | MIC [1]: < 16 µg/mL
18 | N[C@@H]1C[C@H](N)CN(c2nc(Nc3ccc(C(=O)Nc4cccc(C(F)(F)F)c4)c(O)c3)nc(N3C[C@H](N)C[C@H](N)C3)n2)C1 [N-[3-hydroxy-4-(3-trifluoromethyl-phenylcarbamoyl)-phenyl]-4,6-Bis-((3R,5S)-3,5-diamino-piperidin-1-yl)-[1,3,5]triazine-2-amine] | < 16 | –
19 | NC(=O)c1ccc(Nc2nc(N3C[C@H](N)C[C@H](N)C3)nc(N3C[C@@H](N)C[C@H]3CO)n2)cc1O [4-[4-((2S,4S)-4-Amino-2-hydroxymethyl-pyrrolidin-1-yl)-6-((3R,5S)-3,5-diamino-piperidin-1-yl)-[1,3,5]triazin-2-ylamino]-2-hydroxy-benzamide] | > 64 | –
20 | N-[4-(cyclohexanecarbonyl-amino)-3-hydroxy-phenyl]-4,6-Bis-((3R,5S)-3,5-0diamino-piperidin-1-yl)-[1,3,5]triazine-2-amine | – | Potency (MIC) [1]: + (+ means MIC<64 μg/ml in E. coli or S. aureus)
21 | COc1ccc(Nc2ccc(NC(=O)CC(=O)c3ccc(Nc4nc(N5CCCCC5)nc(N5CCCCC5)n4)cc3)cc2)cc1 [N-{4-[2-(4-methoxy-phenylcarbamoyl)-acetyl]-phenyl}-44,6-Bis-((3R,5S)-3,5-diamino-piperidin-1-yl)-[1,3,5]triazine-2-amine] | – | MIC [1]: < 16 µg/mL
22 | N[C@@H]1CC(c2nc(NC3CCNCC3)nc(N3C[C@H](N)C[C@H](N)C3)n2)C[C@H](N)C1 (stereo partly drawn) [N-piperidin-4-yl-4,6-Biss-((3R,5S)-3,5-diamino-piperidin-1-yl)-[1,3,5]triazine-2-amine] | – | MIC [1]: > 64 µg/mL
23 | N[C@@H]1C[C@H](N)CN(c2nc(NNc3ccc(F)cc3)nc(N3C[C@H](N)C[C@H](N)C3)n2)C1 [N-(4,6-Bis-((3R,5S)-3,5-diamino-piperidin-1-yl)-[1,3,5]triazin-2-yl)-N′-(4-Fluoro-phenyl)-hydrazine] | < 64 | –
24 | Cc1cccc(Nc2nc(N3C[C@H](N)C[C@H](N)C3)nc(N3C[C@H](N)C[C@H](N)C3)n2)n1 [N-(6-methyl-pyridin-2-yl)-4,6-Bis-((3R,5S)-3,5-diamino-piperidin-1-yl)-[1,3,5]triazine-2-amine] | > 64 | –
25 | N[C@@H]1C[C@H](N)CN(c2nc(Nc3ccc(C(=O)CC(=O)Nc4ccc(S(=O)(=O)Nc5ccc6cn[nH]c6c5)cc4)cc3)nc(N3C[C@H](N)C[C@H](N)C3)n2)C1 [N-(4-{2-[4-(1H-indazol-6-ylsulfamoyl)-phenylcarbamoyl]-acetyl}-phenyl)-4,6-Bis-((3R,5S)-3,5-diamino-piperidin-1-yl)-[1,3,5]triazine-2-amine] | < 64 | –
26 | CC(C)c1cc(C(=O)Nc2ccc(Nc3nc(N4C[C@H](N)C[C@H](N)C4)nc(N4C[C@H](N)C[C@H](N)C4)n3)cc2O)c(O)c(C(C)C)c1 [N-[3-hydroxy-4-(2-hydroxy-3,5-diisopropyl-benzoylamino)-phenyl]-4,6-Bis-((3R,5S)-3,5-diamino-piperidin-1-yl)-[1,3,5]triazine-2-amine] | < 16 | –
27 | N[C@@H]1C[C@H](N)CN(c2nc(Nc3ccc(NC(=O)c4ccc(Cl)cc4)c(O)c3)nc(N3CCN(c4ccncc4)CC3)n2)C1 [4-Chloro-N-{4-[4-((3S,5R)-3,5-diamino-piperidin-1-yl)-6-(4-pyridin-4-yl-piperazin-1-yl)-[1,3,5]triazin-2-ylamino]-2-hydroxy-phenyl}-benzamide] | < 64 | –
28 | Cl.O=C(Nc1ccc(Nc2nc(NCCCn3ccnc3)nc(N3CCCCC3)n2)cc1O)c1ccc(Cl)cc1 | – | MIC [1]: < 64 µg/mL
29 | CN(C)c1ccc(C(=O)Nc2ccc(Nc3nc(N4C[C@H](N)C[C@H](N)C4)nc(N4C[C@H](N)C[C@H](N)C4)n3)cc2)c(O)c1 [N-[4-(4-dimethylamino-2-hydroxy-benzoylamino)-phenyl]-4,6-Bis-((3R,5S)-3,5-diamino-piperidin-1-yl)-[1,3,5]triazine-2-amine] | < 16 | –
30 | N[C@@H]1C[C@H](N)CN(c2nc(Nc3ccc(NC(=O)c4ccc(Cl)cc4)c(O)c3)nc(NC3CCCNC3)n2)C1 (stereo partly drawn) [4-Chloro-N-{4-[4-((3S,5R)-3,5-diamino-piperidin-1-yl)-6-(piperidin-3-ylamino)-[1,3,5]triazin-2-ylamino]-2-hydroxy-phenyl}-benzamide] | < 16 | –
31 | N[C@@H]1C[C@H](N)CN(c2nc(Nc3nc4ccc([N+](=O)[O-])cc4s3)nc(N3C[C@H](N)C[C@H](N)C3)n2)C1 [N-(6-nitro-benzothiazol-2-yl)-4,6-Bis-((3R,5S)-3,5-diamino-piperidin-1-yl)-[1,3,5]triazine-2-amine] | < 16 | –
